For assay [1], the system named is MCF-7 cells (hormone-dependent breast cancer cells containing ERα). Put plainly: Proliferative/antiproliferative effect on MCF-7 cells. Type of assay: cell-based. Particulars: for proliferative effect based on the control: MCF-7, without phenol red, 10^−8M; for IC50: MCF-7, approximate, estrogen effect plus cytotoxic activity, read-out: IC50 on MCF-7 line (converted). The source says:
The purely cytotoxic effect appears at higher concentrations where the resultant of the two components (estrogen effect plus cytotoxic activity) is therefore evidenced. It is thus difficult to achieve very accurate IC50 values for the MCF-7 line.

Assay [2] relates to PC-3 cells (non-hormone-dependent prostate cancer cells). Particulars: read-out: Antiproliferative effect (IC50). The method, then: (§1) The antiproliferative effects of compounds of the invention were tested on MDA-MB-231 cells, which are non-hormone-dependent breast cancer cells, on PC-3 cells, which are non-hormone-dependent prostate cancer cells and on MCF-7 cells, which are hormone-dependent breast cancer cells.
(§2) The experimental method used for this test is described in Hillard E. A. et al. Chem. Med. Chem. 2006, 1, 551-559.

The test system of assay [3] is MDA-MB-231 cells (non-hormone-dependent breast cancer cells). As to conditions: read-out: Antiproliferative effect (IC50). On the procedure: as §1, §2

Turning to “1,1′-[1-[1,1-bis(4-hydroxyphenyl)methylidene]trimethylene]ferrocene [Compound 4]”, in assay [1], the “proliferative effect based on the control” value came to 162%. For the same compound, the values for the IC50 in assay [1], in assay [2] and in assay [3] were approximately 4000 nM, 940 nM and 80 nM, respectively.

Regarding “1,2-[1-[1,1-bis(4-hydroxyphenyl)methylidene]trimethylene]ferrocene [Compound 8]”, the half-inhibitory concentration (IC50) in assay [3] was found to be 2700 nM.

On to `C[C@]12CC[C@@H]3c4ccc(O)cc4CC[C@H]3[C@@H]1CC[C@@H]2O` [estradiol, reference compound], for which, in assay [1], the “proliferative effect based on the control” value amounted to 264%. As to “1,2-[1-[1,1-bis(4-hydroxyphenyl)methylidene]tetramethylene]-ferrocene [Compound 9]”, the IC50 in assay [3] was 500 nM. With “(R)-1,1′-[1-[1,1-bis(4-hydroxyphenyl)methylidene]-3-methyltrimethylene]ferrocene [Compound 7]”, in assay [3], the IC50 worked out at 780 nM. As to “1,1′-[2-[1,1-bis(4-hydroxyphenyl)methylidene]trimethylene]ferrocene [Compound 5]”, the results for the 50% inhibitory concentration (IC50) in assay [1], in assay [2] and in assay [3] were approximately 1000 nM, 1080 nM and 960 nM, respectively. Take “(S)-1,1′-[1-[1,1-bis(4-hydroxyphenyl)methylidene]-3-methyltrimethylene]ferrocene [Compound 6]”: the half-maximal inhibitory concentration (IC50) in assay [3] came out at 2700 nM. For “1,1′-[1-[1,1-bis(4-hydroxyphenyl)methylidene]-2-methyltrimethylene]ferrocene [Compound 11]”, the IC50 in assay [3] came out at 630 nM. Still for that read-out and setting: then “1,1′-[1-[(4-hydroxyphenyl)(phenyl)-methylidene]trimethylene]ferrocene [Compound 12]”, with 470 nM.

The values above are taken from US8426462B2, “Ferrocene derivatives with anticancer activity” (Centre National de la Recherche Scientifique (CNRS), priority 2008, dated 2013).
